Experimental data: ChEMBL document CHEMBL2440034, “Towards new C6-rigid S-DABO HIV-1 reverse transcriptase inhibitors: synthesis, biological investigation and molecular modeling studies” (Bioorg Med Chem, 2013)

Key:
[1] = target: Human immunodeficiency virus type 1 reverse transcriptase (Human immunodeficiency virus 1, UniProt Q72547); assay: Inhibition of recombinant wild type HIV-1 reverse transcriptase p66/p51 expressed in Escherichia coli JM109 using poly(rA)/oligo(dT)16 (1:1.2) as template/primer after 40 mins by spectrofluorometric analysis
[2] = tested on: Human immunodeficiency virus 1; assay: Antiviral activity against wild type HIV-1 3B infected in human MT4 cells assessed as protection against virus-induced cytopathogenicity after 5 days by MTT assay; format: functional, organism-based; conditions: Human immunodeficiency virus 1, 3B, MT4, 120 h
[3] = Cytotoxicity against human MT4 cells assessed as cell viability after 5 days by MTT assay; format: cell-based
[4] = Selectivity index, ratio of CC50 for human MT4 cells to EC50 for wild type HIV-1 3B infected in human MT4 cells; format: toxicity, cell-based; conditions: read-out: Ratio CC50/EC50
[5] = tested on: Human immunodeficiency virus 1; assay: Potency index, ratio of DDI EC50 to compound EC50 for wild type HIV-1 3B infected in human MT4 cells; format: functional
[6] = tested on: Human immunodeficiency virus 2; assay: Antiviral activity against HIV-2 ROD infected in human MT4 cells assessed as protection against virus-induced cytopathogenicity after 5 days by MTT assay; format: functional, organism-based; conditions: Human immunodeficiency virus 2, ISOLATE ROD, MT4, 120 h
[7] = tested on: Human immunodeficiency virus 1; assay: Antiviral activity against HIV-1 RESO56 harboring RT K103N/Y181C double mutant infected in human MT4 cells assessed as protection against virus-induced cytopathogenicity after 5 days by MTT assay; format: functional, organism-based; conditions: Human immunodeficiency virus 1, RESO56, MT4, 120 h

SMILES	IC50 [1] [µM]	EC50 [2] [µM]	CC50 at 120 h [3] [µM]	selectivity ratio [4]	Ratio EC50 [5]	EC50 [6] [µM]	EC50 [7] [µM]
COc1ccc(CSc2nc(C(=O)c3cccc(F)c3)c(C(C)C)c(=O)[nH]2)cc1	0.04	0.29	132	472	50	> 132	> 132
COc1ccc(CSc2nc(C(=O)c3cc(F)cc(F)c3)c(C)c(=O)[nH]2)cc1		2.71	86.9	32		> 86.9	> 86.9
CCc1c(C(=O)c2cccc(Br)c2)nc(SCc2ccc(OC)cc2)[nH]c1=O		1.18	98.9	84		> 98.9	> 98.9
COc1ccc(CSc2nc(C(=O)c3cccc(Br)c3)c(C)c(=O)[nH]2)cc1		16	201	13		> 201	> 201
Cc1cn([C@H]2C[C@H](N=[N+]=[N-])[C@@H](CO)O2)c(=O)[nH]c1=O [ZIDOVUDINE]		0.0059		15800		0.0064	0.0066
CCc1c(C(=O)c2cc(F)cc(F)c2)nc(SCc2ccc(OC)cc2)[nH]c1=O	0.16	0.26	139	541	50	> 139	> 139
COc1ccc(CSc2nc(C(=O)c3cccc(F)c3)c(C)c(=O)[nH]2)cc1		6.35	225	35		> 225	> 225
COc1ccc(CSc2nc(C(=O)c3ccc(F)c(F)c3)c(C)c(=O)[nH]2)cc1		≥ 127	127	≤ 1		> 127	> 127
COc1ccc(CSc2nc(C(=O)c3ccc(F)cc3)c(C(C)C)c(=O)[nH]2)cc1		6.52	135	21		> 135	> 135
CCc1c(C(=O)c2cccc(F)c2)nc(SCc2ccc(OC)cc2)[nH]c1=O	0.19	0.38	167	436	50	> 167	> 167
Nc1ccn([C@H]2CC[C@@H](CO)O2)c(=O)n1 [ZALCITABINE]		0.46	94.7	208			
COc1ccc(CSc2nc(C(=O)c3ccccc3F)c(C)c(=O)[nH]2)cc1	2.41	1.4	175	124		> 175	> 175
COc1ccc(CSc2nc(C(=O)c3ccc(C(C)(C)C)cc3)c(C)c(=O)[nH]2)cc1		≥ 126	126	≤ 1		> 126	
COc1ccc(CSc2nc(C(=O)c3ccccc3F)c(C(C)C)c(=O)[nH]2)cc1	0.072	0.27	38.2	145	50	> 38.2	> 38.2
COc1ccc(CSc2nc(C(=O)c3ccc(Cl)cc3)c(C)c(=O)[nH]2)cc1		≥ 151	≥ 151			> 151	
COc1ccc(CSc2nc(C(=O)c3ccc(Br)cc3)c(C(C)C)c(=O)[nH]2)cc1		≥ 42.5	42.5	≤ 1		> 42.5	
Cc1ccnc2c1NC(=O)c1cccnc1N2C1CC1 [NEVIRAPINE]		0.084	15				1.97
COc1ccc(CSc2nc(C(=O)c3ccc(Br)cc3)c(C)c(=O)[nH]2)cc1		≥ 252	252	≤ 1		> 252	
COc1ccc(CSc2nc(C(=O)c3ccc(F)cc3)c(C)c(=O)[nH]2)cc1		≥ 325	≥ 325			> 325	
COc1ccc(CSc2nc(C(=O)c3cccc(Cl)c3)c(C)c(=O)[nH]2)cc1		7.21	152	21		> 152	> 152
O=C1Nc2ccc(Cl)cc2[C@@](C#CC2CC2)(C(F)(F)F)O1 [EFAVIRENZ]		0.0067	6.34				0.46
O=c1[nH]cnc2c1ncn2[C@H]1CC[C@@H](CO)O1 [DIDANOSINE]		17.2	212	12		15.3	
CC(C)Nc1cccnc1N1CCN(C(=O)c2cc3cc(NS(C)(=O)=O)ccc3[nH]2)CC1 [DELAVIRDINE]		0.095	36.2	379			> 36.2
